Data on 6 molecules can be found in ChEMBL document CHEMBL6121057, “Discovery of an Orally Bioavailable STING Inhibitor with In Vivo Anti-Inflammatory Activity in Mice with STING-Mediated Inflammation” (J Med Chem, 2025).

Data set [1] can be described thus: Metabolic stability in human liver microsomes assessed as half life. The data set is classed as ADME, Microsome. (Liver microsomes are vesicles of endoplasmic reticulum, rich in cytochrome P450 enzymes.)
Data set [2] in a line: Metabolic stability in human liver microsomes assessed as intrinsic clearance. Type of data set: ADME, Microsome. The following applies: read-out: CLH.
Data set [3] can be described thus: Half life in Sprague-Dawley rat at 2 mg/kg, iv measured upto 60 mins by LC-MS/MS analysis. Type of data set: ADME, organism-based. The following applies: in vivo.
Data set [4] in a line: Tmax in Sprague-Dawley rat at 2 mg/kg, iv measured […] by LC-MS/MS analysis. Particulars: in vivo. The data set is classed as ADME, organism-based.
Data set [5] can be described thus: Cmax in Sprague-Dawley rat at 2 mg/kg, iv measured […] by LC-MS/MS analysis. Type of data set: ADME, organism-based. Particulars: in vivo.
Data set [6] can be described thus: AUC (0 to t) in Sprague-Dawley rat at 2 mg/kg, iv measured upto 60 mins by LC-MS/MS analysis. Type of data set: ADME, organism-based. Particulars: in vivo.
Data set [7] in a line: Tmax in Sprague-Dawley rat at 10 mg/kg, po measured […] by LC-MS/MS analysis. Particulars: in vivo. The data set is classed as ADME, organism-based.
The nature of data set [8]: Cmax in Sprague-Dawley rat at 10 mg/kg, po measured […] by LC-MS/MS analysis. Particulars: in vivo. The data set is classed as ADME, organism-based.
The nature of data set [9]: AUC (0 to t) in Sprague-Dawley rat at 10 mg/kg, po measured upto 60 mins by LC-MS/MS analysis. Particulars: in vivo. The data set is classed as ADME, organism-based.
A short description of data set [10]: Oral bioavailability in Sprague-Dawley rat at 10 mg/kg measured […] by LC-MS/MS analysis. Type of data set: ADME, organism-based. Particulars: in vivo.

For the molecule `CCc1ccc(NC(=O)Nc2c[nH]c3ccc(F)cc23)cc1`, the half-life (usually the time needed for the level to fall by half in the phase considered) in [1] came out at 16.9 min. In addition, in data set [2], the CLint scaled worked out at 53 mL/min/kg.

With `O=C(Nc1ccc(C2CCC(F)(F)CC2)cc1)Nc1c[nH]c2ccc(F)cc12`, the half-life in [1] is 41 min. Also, the CLint scaled in data set [2] turned out to be 21.7 mL/min/kg.

Turning to `O=C(Nc1ccc(C(F)(F)F)cc1)Nc1c[nH]c2ccc(Cl)cc12`, the half-life is 139 min in data set [1] and 48 min in data set [3]. Moreover, the CLint scaled in data set [2] is 6.4 mL/min/kg. Besides, the Tmax (in general, the time from dosing to the highest level) in [4] stood at 6 min; in data set [7] it was 252 min. For the same molecule, the Cmax (usually the highest concentration seen after dosing) was 842 ng/mL in [5] and 37 ng/mL in data set [8]. In addition, the AUC(0-t) (in general, the area under the concentration-time curve up to a stated or last time point) at 1 h amounted to 536 ng·h/mL in data set [6] and 125 ng·h/mL in data set [9]. In data set [10], the bioavailability (commonly the share of a dose that reaches the circulation, judged against a reference dose that is usually intravenous) was determined as 4.6%.

As to `O=C(Nc1ccc(C(F)(F)F)cc1)Nc1c[nH]c2ccc(F)cc12`, in data set [1], the half-life came out at 30.4 min. Further, the CLint scaled in [2] amounted to 41 mL/min/kg.

Turning to `CC(C)(C)c1ccc(NC(=O)Nc2c[nH]c3ccc(F)cc23)cc1`, in data set [1], the half-life was 16.3 min. In addition, in data set [2], the CLint scaled worked out at 76.3 mL/min/kg.

For `CCc1ccc(NC(=O)Nc2c[nH]c3ccccc23)cc1`, the half-life in [1] is 6.2 min; in data set [3], 12 min. In data set [2], the CLint scaled is 143 mL/min/kg. For the same molecule, the Tmax in [4] was determined as 6 min; in data set [7] it was 48 min. The Cmax was 1320 ng/mL in [5] and 8 ng/mL in [8]. The figures for the AUC(0-t) at 1 h in data set [6] and in data set [9] were 387 ng·h/mL and 12 ng·h/mL, respectively. The molecule also displayed a bioavailability in data set [10] of 0.6%.
